Laboratory results: ChEMBL document CHEMBL5223093, “Recent advances in the discovery of protein tyrosine phosphatase SHP2 inhibitors” (RSC Med Chem, 2022)

Tests used:
[1] = Downregulation of DUSP6 transcription in human KYSE-520 cells at 30 uM measured after 2 hrs relative to control; type: functional
[2] = biological target: T1, Tyrosine-protein phosphatase non-receptor type 11 (Homo sapiens, UniProt Q06124); experiment: Inhibition of full length SHP2 (unknown origin) using DiFMUP as substrate preincubated for 30 mins followed by substrate addition
T1 sequence (Q06124 whole entry): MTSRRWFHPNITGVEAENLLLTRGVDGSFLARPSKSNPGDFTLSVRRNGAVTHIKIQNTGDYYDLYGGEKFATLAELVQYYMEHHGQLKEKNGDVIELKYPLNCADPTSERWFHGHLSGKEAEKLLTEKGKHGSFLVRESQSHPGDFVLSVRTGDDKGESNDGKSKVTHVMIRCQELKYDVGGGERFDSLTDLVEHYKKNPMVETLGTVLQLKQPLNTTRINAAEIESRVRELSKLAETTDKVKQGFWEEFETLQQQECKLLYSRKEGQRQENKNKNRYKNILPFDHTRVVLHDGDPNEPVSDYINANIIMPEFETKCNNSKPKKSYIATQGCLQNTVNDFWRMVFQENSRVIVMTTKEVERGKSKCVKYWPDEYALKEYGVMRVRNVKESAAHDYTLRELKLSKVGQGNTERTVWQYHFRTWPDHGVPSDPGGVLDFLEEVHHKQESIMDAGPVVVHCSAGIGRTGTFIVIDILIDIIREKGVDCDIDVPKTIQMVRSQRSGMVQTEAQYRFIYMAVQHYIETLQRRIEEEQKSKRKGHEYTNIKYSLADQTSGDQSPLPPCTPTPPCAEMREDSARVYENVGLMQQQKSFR

Which Activity [1] does the source give for COc1cccc(-c2nnc3n(Cc4ccccc4Cl)c(=O)c4ccccc4n23)c1O here?
Its Activity is 65%.

For O=C(O)c1ccc(O)c(-c2nnc3n(Cc4ccccc4Cl)c(=O)c4ccccc4n23)c1, which Activity [1] is on record?
Its Activity is 55%.

For COc1cccc(-c2nnc3n(Cc4ccc(C(=O)N5CCC[C@H]5C(=O)O)cc4Cl)c(=O)c4ccccc4n23)c1O, which Activity [1] is on record?
Its Activity is 43%.

Which IC50 [2] does the source give for Cc1nc(N2CCC3(CC2)OC[C@@H](C)[C@H]3N)c(CO)nc1-c1cccc(Cl)c1Cl here?
Its IC50 is 0.583 nM.
